≈ marks a conversion by molar mass, not a printed value. Calls of active or inactive are those of the source. The rule behind the calls is not given here.
What was measured:
[1] = target: T1, Quinolone resistance protein NorA (Staphylococcus aureus) (UniProt P0A0J7); experiment: Inhibition of norA-mediated EtBr efflux in Staphylococcus aureus SA1199B overexpressing norA and expressing A116E GrlA mutation at 50 uM by fluorometry
T1 sequence (whole entry): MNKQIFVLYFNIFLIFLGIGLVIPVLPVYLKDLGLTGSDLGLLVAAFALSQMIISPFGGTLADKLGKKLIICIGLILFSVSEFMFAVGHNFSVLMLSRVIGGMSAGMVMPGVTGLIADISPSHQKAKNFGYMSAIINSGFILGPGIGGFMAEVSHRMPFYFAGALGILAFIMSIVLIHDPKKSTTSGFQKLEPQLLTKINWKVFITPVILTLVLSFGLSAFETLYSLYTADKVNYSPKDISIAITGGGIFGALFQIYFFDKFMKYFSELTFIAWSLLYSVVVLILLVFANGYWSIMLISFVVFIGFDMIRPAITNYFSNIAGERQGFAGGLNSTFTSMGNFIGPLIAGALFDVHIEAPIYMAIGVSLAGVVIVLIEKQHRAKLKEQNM

[2] = target: Quinolone resistance protein NorA (Staphylococcus aureus, UniProt P0A0J7, A116E); experiment: Inhibition of norA-mediated EtBr efflux in Staphylococcus aureus SA1199B overexpressing norA and expressing A116E GrlA mutation by fluorometry
[3] = test system: Staphylococcus aureus; experiment: Antibacterial activity against Staphylococcus aureus SA1199B overexpressing norA and expressing A116E GrlA mutation by microdilution method; type: functional
[4] = test system: Staphylococcus aureus; experiment: Antibacterial activity against wild type Staphylococcus aureus SA1199 expressing norA by microdilution method; type: functional
[5] = test system: Staphylococcus aureus; experiment: Antibacterial activity against norA-deficient Staphylococcus aureus SAK1902 by microdilution method; type: functional
[6] = test system: Staphylococcus aureus; experiment: Antibacterial activity against Staphylococcus aureus SAK2378 overexpressing norA by microdilution method; type: functional
[7] = target: T1, Quinolone resistance protein NorA (Staphylococcus aureus); experiment: Inhibition of norA in wild type Staphylococcus aureus SA1199 expressing assessed as potentiation of ciprofloxacin MIC by checkerboard assay
[8] = target: T1, Quinolone resistance protein NorA (Staphylococcus aureus); experiment: Inhibition of norA overexpressed in Staphylococcus aureus SA1199B coexpressing A116E GrlA mutation assessed as potentiation of ciprofloxacin MIC by checkerboard assay
[9] = target: T1, Quinolone resistance protein NorA (Staphylococcus aureus); experiment: Inhibition of norA in Staphylococcus aureus SA1199B overexpressing norA and expressing A116E GrlA mutation assessed as fold reduction in ciprofloxacin MIC at >6.25 ug/mL by checkerboard assay
[10] = target: T1, Quinolone resistance protein NorA (Staphylococcus aureus); experiment: Inhibition of norA overexpressed in Staphylococcus aureus SA1199B coexpressing A116E GrlA mutation assessed as fold reduction in ciprofloxacin MIC at >12.5 ug/mL by checkerboard assay
[11] = test system: Staphylococcus aureus; experiment: Potentiation of CPX MIC against norA-deficient Staphylococcus aureus SAK1902 by checkerboard assay; type: functional, organism-based
[12] = target: T1, Quinolone resistance protein NorA (Staphylococcus aureus); experiment: Inhibition of norA overexpressed in Staphylococcus aureus SAK2378 assessed as potentiation of CPX MIC by checkerboard assay
[13] = Cytotoxicity against human HepG2 cells after 24 hrs by LDH release assay; type: cell-based
[14] = target: T1, Quinolone resistance protein NorA (Staphylococcus aureus); experiment: Inhibition of norA overexpressed in Staphylococcus aureus SA1199B coexpressing A116E GrlA mutation potentiation of EtBr MIC at >6.25 ug/mL by checkerboard assay

SMILES | inhibition [1] | MIC [3] | MIC [4] | MIC [5] | MIC [6] | inhibition [7] | inhibition [8] | other results
O=[N+]([O-])c1ccc(-n2nc(-c3ccc(Cl)cc3)c3c2-c2ccccc2S(=O)(=O)N3)cc1 | 76.9% | 50 µg/mL (≈ 110 µM) | 50 µg/mL (≈ 110 µM) | 25 µg/mL (≈ 55.2 µM) | 25 µg/mL (≈ 55.2 µM) | inactive | Active | IC50 [2]: 10 µM; fold change (FC) [9]: 8; fold change (FC) [10]: 16; Activity [11]: Active; inhibition [12]: Active; CC50 at 24 h [13]: > 100 µg/mL
CN1c2c(-c3ccc(Cl)cc3)nn(-c3cccc(C(F)(F)F)c3)c2-c2ccccc2S1(=O)=O | 0% | – | – | – | – | – | – | –
CS(=O)(=O)Nc1ccc(-n2nc(-c3ccc(Cl)cc3)c3c2-c2ccccc2S(=O)(=O)N3)cc1 | 19.2% | – | – | – | – | – | – | –
NS(=O)(=O)c1ccc(-n2nc(-c3ccc(Cl)cc3)c3c2-c2ccccc2S(=O)(=O)N3)cc1 | 29.8% | – | – | – | – | – | – | –
O=S1(=O)Nc2c(-c3ccc(Cl)cc3)nn(-c3ccc(F)cc3)c2-c2ccccc21 | 15.5% | – | – | – | – | – | – | –
O=S1(=O)Nc2c(-c3ccc(Cl)cc3)nn(-c3cccc(F)c3)c2-c2ccccc21 | 33.9% | – | – | – | – | – | – | –
Cc1ccc(-c2cc(C(F)(F)F)nn2-c2ccc(S(N)(=O)=O)cc2)cc1 [CELECOXIB] | 64.5% | > 100 µg/mL | > 100 µg/mL | – | – | inactive | inactive | IC50 [2]: > 40 µM; inhibition [14]: Active
O=C(O)c1cn(C2CC2)c2cc(N3CCNCC3)c(F)cc2c1=O [CIPROFLOXACIN] | – | 10 µg/mL (≈ 30.2 µM) | 0.63 µg/mL (≈ 1.9 µM) | 0.31 µg/mL (≈ 0.936 µM) | 2.5 µg/mL (≈ 7.54 µM) | – | – | –
Fc1ccc([C@@H]2CCNC[C@H]2COc2ccc3c(c2)OCO3)cc1 [PAROXETINE] | – | > 100 µg/mL | > 100 µg/mL | > 100 µg/mL | 100 µg/mL (≈ 304 µM) | inactive | Active | –
COC(=O)[C@H]1[C@H]2C[C@@H]3c4[nH]c5cc(OC)ccc5c4CCN3C[C@H]2C[C@@H](OC(=O)c2cc(OC)c(OC)c(OC)c2)[C@@H]1OC [RESERPINE] | – | > 100 µg/mL | > 100 µg/mL | > 100 µg/mL | > 100 µg/mL | inactive | Active | –

— ChEMBL document CHEMBL2046274, “Pyrazolo[4,3-c][1,2]benzothiazines 5,5-dioxide: a promising new class of Staphylococcus aureus NorA efflux pump inhibitors” (J Med Chem, 2012)
